The results in this text go back to patent publication US9428477B2, “Trans-2-decenoic acid derivative and drug containing same” (NIPPON ZOKI PHARMACEUTICAL CO., LTD., priority 2012, dated 2016).

The subject of series [1] is rats with paclitaxel-induced peripheral nerve disorder. Description: Rat peripheral nerve disorder induced by paclitaxel, von Frey test. Particulars: ip, test drug intraperitoneally, single dose, higher of values 1 and 5 hours after administration, mechanical stimulus of right hind limb, normal threshold 15, read-out: Recovery Rate of 50% Reaction Threshold Value. It is filed as in vivo. The procedure:
The effects of the compounds of the present invention were evaluated for a peripheral nerve disorder which is a side effect induced by the administration of an anti-cancer agent paclitaxel, such as hyperesthesia including allodynia induced by mechanical stimuli, which is a severe pain induced by such tactile stimuli which usually cause no pains. The compound of the present invention was intraperitoneally administered to rats as a test drug to conduct a von Frey test.
Male SD rats of six weeks age (six rats per group) were used as experimental animals, and paclitaxel (2 mg/kg) was intraperitoneally administered every other day for four times in total to prepare rats with paclitaxel-induced peripheral nerve disorder. During the period of 18 to 25 days or during the period of 20 to 27 days after the initiation of paclitaxel administration, the test drug was intraperitoneally administered in a single dose of […], and the following von Frey test was conducted.
The rats of the above (1) were placed in a transparent acrylic cage with a wire-meshed floor and habituated for about three minutes, and the 50% reaction threshold values to the mechanical stimulus of right hind limb were measured before administration of the test drug and after 1 and 5 hours from the initiation of the administration.
The measurement was conducted using von Frey filaments (manufactured by North Coast Medical Inc.) in accordance with the methods of Chaplan, et al. (Journal of Neuroscience Methods, 53(1), 55-63, 1994) and Dixon, et al. (Annual Review of Pharmacology and Toxicology, 20, 441-462, 1980). […] The case where the rat escaped at the instance of removing the filament was also called positive. When the positive reaction was found, stimulus was applied similarly with a filament of one rank weaker, and in the absence of the reaction, stimulus was similarly applied with a filament of one rank stronger, and a point where the reaction changed from negative to positive or from positive to negative was called the first two reactions. Subsequently, stimuli were applied for continuously four times by the same up-down method. A 50% reaction threshold value to the mechanical stimulus was measured using the reaction to the six stimuli in total and then (mean value)±(standard error) for each group was calculated. Incidentally, when stimulus reached to a load of 15.0 g without positive reaction, or when positive reaction continued to a load of 0.4 g, 15.0 g or 0.25 g was adopted as each of 50% reaction threshold values. With regard to the higher 50% reaction threshold value between the 50% threshold values after 1 hour and 5 hours from administration of a test drug, a recovery rate (%) of the 50% reaction threshold value was calculated by the following expression in which 15 was taken as a normal threshold value.
Recovery rate (%) of 50% reaction threshold value=[(50% reaction threshold value after 1 hour or 5 hours from administration of test drug)−(50% reaction threshold value before administration of test drug)]/[(Normal threshold value)−(50% reaction threshold value before administration of test drug)]×100

The subject of the next series is MAP kinase (ERK 1/2). Description: Activation (phosphorylation) of MAP kinase in cultured cerebral cortex nerve cells, Western immunoblotting. As to conditions: 0.5 h; fetal rat cerebral cortex nerve cells; compound 250 μg/ml in 0.1% DMSO; 30 minutes; relative to control = 1.00; read-out: Ratio of pMAPK to MAPK. It is filed as cell-based. How it is done: With regard to the compounds of the present invention, the activation of MAP kinase (ERK 1/2) was measured in accordance with a Western immunoblotting in the following manner.
Nerve cells were dispersed from cerebral cortex of a fetal rat of 17 days age, and the nerve cells were cultured for one day in a Dulbecco's modified Eagle's medium (DMEM) containing 5% fetal bovine serum. The culture medium was exchanged with a serum-free medium (B27 supplemented Neurobasal; Invitrogen), and the nerve cells were cultured at the density of 20,000 to 40,000 cells/cm^2 in a polyornithine-coated culture dish.
After three days, the compound of the present invention was added, and the culture was continued for 30 minutes. Thereafter, the cells were recovered on ice using a solution containing a phosphatase inhibitor where Tris-HCl buffer was used as a base. The protein concentration of the resulting cell extract was quantified with a BCA Protein Assay Kit (Takara Bio Co., Ltd.), and a certain amount of the protein (3 μg for the measurement of MAP kinase and 5 μg for the measurement of phosphorylated MAP kinase) was subjected to polyacrylamide gel electrophoresis. The protein was transferred from the electrophoresed gel to a PVDF membrane, and Western immunoblotting was carried out using each of an anti-MAP kinase antibody (Cell Signaling Technology) and an anti-phosphorylated MAP kinase antibody (Cell Signaling Technology) of the primary antibody.
Subsequently, the reaction with an alkaline phosphatase-labeled anti-rabbit IgG antibody (Promega) of the secondary antibody was carried out, and the enzymatic activity was allowed to develop color, to measure MAP kinase (MAPK) and the phosphorylated MAP kinase (pMAPK).
Incidentally, each of the compounds of the present invention was dissolved in 0.1% DMSO to adjust its concentration to 250 μg/ml. As to the control, 0.1% DMSO was added.
The intensity of the concentration of the bands of eletrophoresed the gel was calculated and quantified using Image J (K. K. Bioarts). The numerical values for the MAPK when using the compounds of the present invention were each divided by the numerical value for the MAPK of the control, and the numerical values for the pMAPK when using the compounds of the present invention were divided by the numerical value for the pMAPK of the control, whereby a ratio of the MAPK when using each of the compounds of the present invention to the control, and a ratio of the pMAPK when using each of the compounds of the present invention to the control were obtained. Subsequently, the ratio of the pMAPK to the control obtained was divided by the ratio of the MAPK to the control to obtain a ratio of the pMAPK to the MAPK.
On the technique in general: A western blot detects proteins with antibodies after separation by electrophoresis.

As for `CCCCCCC/C=C/C(=O)N1CCCN(C)CC1` [Compound 33, 1-((E)-2-Decenoyl)-4-methyl-[1,4]diazepane], the change in vivo at 0.3 mg/kg in series [1] came out at 33.4%.

For the molecule `CCCCCCC/C=C/C(=O)N1CCC(c2ccccc2)CC1` [Compound 16, 1-((E)-2-Decenoyl)-4-phenylpiperidine], the change in vivo at 0.3 mg/kg in series [1] was 38.6%.

Turning to `CCCCCCC/C=C/C(=O)N1CCN(c2ncccn2)CC1` [Compound 31, 1-((E)-2-Decenoyl)-4-(pyrimidin-2-yl)piperazine], in series [1], the change in vivo at 0.3 mg/kg turned out to be 22.9%.

Turning to `CCCCCCC/C=C/C(=O)N1CCC[C@H]1C(=O)O` [Compound 2, (S)-1-((E)-2-Decenoyl)pyrrolidine-2-carboxylic acid], the change in vivo at 0.3 mg/kg in series [1] was found to be 23.5%. For the same molecule, the fold induction at 250 µg/mL with MAP kinase (ERK 1/2) stood at 1.28.

For `CCCCCCC/C=C/C(=O)N1CCC(CCC(=O)O)CC1` [Compound 36, 3-(1-((E)-2-Decenoyl)-4-piperidyl)propanoic acid], the change in vivo at 0.3 mg/kg in series [1] was found to be 42%.

With `CCCCCCC/C=C/C(=O)N1CCN(c2ccc(OC)cc2)CC1` [Compound 42, 1-((E)-2-Decenoyl)-4-(4-methoxyphenyl)piperazine], the melting point was 50 to 52 °C. For the same molecule, in series [1], the change in vivo at 0.3 mg/kg came to 45.8%.

For the molecule `CCCCCCC/C=C/C(=O)N1CCN(c2ccccn2)CC1` [Compound 30, 1-((E)-2-Decenoyl)-4-(pyridin-2-yl)piperazine], the change in vivo at 0.3 mg/kg in series [1] came to 22.6%.

In the case of `CCCCCCC/C=C/C(=O)N1CCC(N(CC)CC)CC1` [Compound 13, 1-((E)-2-Decenoyl)-4-diethylaminopiperidine], the change in vivo at 0.3 mg/kg in series [1] is 23.2%. Further, the fold induction at 250 µg/mL in the series with MAP kinase (ERK 1/2) was determined as 1.63.

For the molecule `CCCCCCC/C=C/C(=O)N1CCC(C#N)CC1` [Compound 37, 1-((E)-2-Decenoyl)-4-cyanopiperidine], the change in vivo at 0.3 mg/kg in series [1] came to 22.4%.

In the case of `CCCCCCC/C=C/C(=O)N1CCN(c2ccc(O)cc2)CC1` [Compound 46, 1-((E)-2-Decenoyl)-4-(4-hydroxyphenyl)piperazine], the melting point was 85 to 87 °C. Further, the change in vivo at 0.3 mg/kg in series [1] worked out at 53.7%.

For `CCCCCCC/C=C/C(=O)N1CCC(=O)CC1` [Compound 7, 1-((E)-2-decenoyl)piperidin-4-one], the change in vivo at 0.3 mg/kg in series [1] was found to be 45.2%. Besides, the fold induction at 250 µg/mL with MAP kinase (ERK 1/2) worked out at 1.62.

Turning to `CCCCCCC/C=C/C(=O)N1CCCCCC1` [Compound 32, 1-((E)-2-Decenoyl)azepane], the change in vivo at 0.3 mg/kg in series [1] stood at 51.1%.

`CCCCCCC/C=C/C(=O)N1CCN(c2ccc(N(C)C)cc2)CC1` [Compound 28, 1-((E)-2-Decenoyl)-4-(4-dimethylaminophenyl)piperazine] had a melting point of 73 to 74 °C. The change in vivo at 0.3 mg/kg in series [1] worked out at 20.3%.

Regarding `CCCCCCC/C=C/C(=O)N1CCN(c2ccc(F)cc2)CC1` [Compound 44, 1-((E)-2-Decenoyl)-4-(4-fluorophenyl)piperazine], the change in vivo at 0.3 mg/kg in series [1] came out at 42.6%.

For the molecule `CCCCCCC/C=C/C(=O)N1CCN(c2ccncc2)CC1` [Compound 29, 1-((E)-2-Decenoyl)-4-(pyridin-4-yl)piperazine], the change in vivo at 0.3 mg/kg in series [1] turned out to be 42.8%.

For the molecule `CCCCCCC/C=C/C(=O)N1CCC(O)CC1` [Compound 8, 1-((E)-2-Decenoyl)-4-hydroxypiperidine], in series [1], the change in vivo at 0.3 mg/kg stood at 49.7%.

Consider `CCCCCCC/C=C/C(=O)N1CCN(C)CC1` [Compound 19, 1-((E)-2-Decenoyl)-4-methylpiperazine], for which the change in vivo at 0.3 mg/kg in series [1] was 19.8%.

Take `CCCCCCC/C=C/C(=O)N1CCN(CCCC(=O)O)CC1.Cl` [Compound 40, 4-[4-[(E)-2-Decenoyl]piperazin-1-yl]butanoic acid hydrochloride]: the melting point was in the range of 203 to 205 °C. Further, the change in vivo at 0.3 mg/kg in series [1] amounted to 61.6%.

Turning to `CCCCCCC/C=C/C(=O)N1CCOCC1` [Compound 17, 4-((E)-2-Decenoyl)morpholine], the change in vivo at 0.3 mg/kg in series [1] is 30.6%.

On to `CCCCCCC/C=C/C(=O)N1CCC(OC)CC1` [Compound 9, 1-((E)-2-Decenoyl)-4-methoxypiperidine], for which the change in vivo at 0.3 mg/kg in series [1] was found to be 35.6%.

`CCCCCCC/C=C/C(=O)N1CCC(c2ccc(Cl)cc2)CC1` [Compound 38, 1-((E)-2-Decenoyl)-4-(4-chlorophenyl)piperidine]: in series [1], the change in vivo at 0.3 mg/kg was determined as 55.5%.

With `CCCCCCC/C=C/C(=O)N1CCN(Cc2ccc(C(=O)O)cc2)CC1` [Compound 48, 4-[[4-((E)-2-Decenoyl)piperazin-1-yl]methyl]benzoic acid], the melting point is 114 to 116 °C. Besides, the change in vivo at 0.3 mg/kg in series [1] was found to be 56.4%.

For the molecule `CCCCCCC/C=C/C(=O)N1CCN(c2ccc(OCC(=O)O)cc2)CC1` [Compound 47, 2-[4-[4-((E)-2-Decenoyl)piperazin-1-yl]phenoxy]acetic acid], the melting point is 210 °C (dec.). For the same molecule, the change in vivo at 0.3 mg/kg in series [1] came out at 54.5%.

As for `CCCCCCC/C=C/C(=O)N1CCC(CCN(C)C)CC1` [Compound 15, 1-((E)-2-Decenoyl)-4-(2-dimethylaminoethyl)piperidine], the change in vivo at 0.3 mg/kg in series [1] is 34.2%.

Consider `CCCCCCC/C=C/C(=O)N1CCN(c2ccccc2Cl)CC1` [Compound 45, 1-((E)-2-Decenoyl)-4-(2-chlorophenyl)piperazine], for which the change in vivo at 0.3 mg/kg in series [1] stood at 33.3%.

`CCCCCCC/C=C/C(=O)N1CCN(c2ccc(C)cc2)CC1` [Compound 43, 1-((E)-2-Decenoyl)-4-(4-methylphenyl)piperazine] registered a melting point of 45 to 46 °C. Further, the change in vivo at 0.3 mg/kg in series [1] came to 31.3%.

On to `CCCCCCC/C=C/C(=O)N1CCN(CC(=O)O)CC1.Cl` [Compound 39, [4-[(E)-2-Decenoyl]piperazin-1-yl]acetic acid hydrochloride], for which the melting point was 195 °C (dec.). Besides, in series [1], the change in vivo at 0.3 mg/kg is 16.6%.

Regarding `CCCCCCC/C=C/C(=O)N1CCCN(CCN(C)C)CC1` [Compound 34, 1-((E)-2-Decenoyl)-4-(2-dimethylaminoethyl)-[1,4]diazepane], the change in vivo at 0.3 mg/kg in series [1] was 35.5%.

In the case of `CCCCCCC/C=C/C(=O)N1CCN(c2ccc(Cl)cc2)CC1` [Compound 41, 1-((E)-2-Decenoyl)-4-(4-chlorophenyl)piperazine], the change in vivo at 0.3 mg/kg in series [1] was determined as 81.5%.

Take `CCCCCCC/C=C/C(=O)N1CCC(CC(=O)O)CC1` [Compound 35, 2-(1-((E)-2-Decenoyl)-4-piperidyl)acetic acid]: the melting point fell in the range of 65 to 66 °C. In addition, the change in vivo at 0.3 mg/kg in series [1] is 41.2%.

Usually melting point stands for the temperature of the solid-liquid transition.
